These results are taken from patent US6872745B2, “Antipicornaviral compounds and compositions, their pharmaceutical uses, and materials for their synthesis” (Agouron Pharmaceuticals, Inc., priority 2000, dated 2005).

Data set [1] deals with EV 70. Briefly: Anti-enteroviral cell culture assay (MRC-5, XTT). Format: cell-based, enterovirus type 70. The settings on record: Enterovirus D, MRC5; ENT-70, MRC-5 cells. The protocol:
(§1) Echovirus type 11 (ECHO 11) was purchased from ATCC (Rockville, Md.). Virus stocks were propagated and antiviral assays were performed in MRC-5 cells (ATCC). Cells were grown in minimal essential medium with 10% fetal bovine serum (Life Technologies, Gaithersburg, Md.). The ability of the compounds of this invention to protect cells against ECHO 11 infection was measured by the XTT dye reduction method (Weislow et al., J. Natl. Cancer Inst. (1989), vol. 81, 577-586). MRC-5 cells were infected with ECHO 11 at an m.o.i. of 0.003 or 0.004, respectively, or mock-infected with medium only. Infected or uninfected cells were added at 1×10^4 cells per well and incubated with appropriate concentrations of compound. Four days later, XTT/PMS was added to test plates, and the amount of formazan produced was quantified spectrophotometrically at 450/650 nm. The EC50 was calculated as the concentration of compound that increased the formazan production in compound-treated, virus-infected cells to 50% of that produced by compound-free, uninfected cells. […] The therapeutic index (TI) was calculated by dividing the CC50 by the EC50. Activity of the compounds against enterovirus type 70 (EV 70) may be measured by the same assay as described above in this section. […]
(Tetrazolium assays rely on reduction of a dye to a coloured formazan, in cell work by metabolically active cells.)

The nature of data set [2]: Cytotoxicity in uninfected cells of the anticoxsackieviral assay (XTT). Format: cell-based. The settings on record: human, H1-HeLa cells, table line CAV-21. The protocol: (§2) Coxsackievirus types A-21 (CAV-21) and B3 (CVB3) were purchased from American Type Culture Collection (ATCC, Rockville, Md.). Virus stocks were propagated and antiviral assays were performed in H1-HeLa cells (ATCC). Cells were grown in minimal essential medium with 10% fetal bovine serum (Life Technologies, Gaithersburg, Md.). The ability of the compounds of this invention to protect cells against either CAV-21 or CVB3 infection was measured by the XTT dye reduction method. This method is described in Weislow et al., J. Natl. Cancer Inst. (1989), vol. 81, 577-586. H1-HeLa cells were infected with CAV-21 or CVB3 at a multiplicity of infection (m.o.i.) of 0.025 or 0.075, respectively, or mock-infected with medium only. H1-HeLa cells were plated at 4×10^4 cells per well in a 96-well plate and incubated with appropriate concentrations of the test compound. One day (CVB3) or two days (CAV-21) later, XTT/PMS was added to test plates and the amount of formazan produced was quantified spectrophotometrically at 450/650 nm. The EC50 was calculated as the concentration of compound that increased the formazan production in compound-treated, virus-infected cells to 50% of that produced by compound-free, uninfected cells. […] The therapeutic index (TI) was calculated by dividing the CC50 by the EC50.

Data set [3] deals with HRV-10. Briefly: Antirhinoviral H1-HeLa cell culture assay (XTT cell protection). Format: cell-based. As to conditions: Human rhinovirus sp., HRV10; HRV-10, H1-HeLa cells. The protocol:
In this cell protection assay, the ability of compounds to protect cells against HRV infection was measured by the XTT dye reduction method, which is described in Weislow et al., J. Natl. Cancer Inst. (1989), vol. 81, 577-586. H1-HeLa cells were infected with HRV-14 at a multiplicity of infection (m.o.i.) of 0.13 (virus particles/cell) or mock-infected with medium only. Infected or mock-infected cells were resuspended at 8×10^5 cells per ml, and incubated with appropriate concentrations of the compounds to be tested. Two days later, XTT/PMS was added to test plates and the amount of formazan produced was quantified spectrophotometrically at 450/650 nm. The EC50 value was calculated as the concentration of compound that increased the percentage of formazan production in compound-treated, virus-infected cells to 50% of that produced by compound-free, mock-infected cells. The 50% cytotoxic dose (CC50) was calculated as the concentration of compound that decreased the percentage of formazan produced in compound-treated, mock-infected cells to 50% of that produced by compound-free, mock-infected cells. The therapeutic index (TI) was calculated by dividing the CC50 value by the EC50 value.
All strains of human rhinovirus (HRV) for use in this assay were purchased from American Type Culture Collection (ATCC), except for HRV serotype-14 (produced from the infectious cDNA clone constructed by Dr. Robert Rueckert, Institute for Molecular Virology, University of Wisconsin, Madison, Wis.). HRV stocks were propagated and viral assays were performed in H1-HeLa cells (ATCC). Cells were grown in minimal essential medium with 10% fetal bovine serum, available from Life Technologies (Gaithersburg, Md.).

Data set [4] concerns CAV-21. Briefly: Anticoxsackieviral cell culture assay (H1-HeLa, XTT). The class given is cell-based, Coxsackievirus type A-21. The settings on record: Coxsackievirus; CAV-21, H1-HeLa cells. The protocol: as §2
The subject of data set [5] is ECHO 11. Briefly: Anti-echoviral cell culture assay (MRC-5, XTT). Format: cell-based, Echovirus type 11. The settings on record: Enterovirus B, MRC5; ECHO-11, MRC-5 cells. The protocol:
as §1

The subject of data set [6] is H1-HeLa cells. Briefly: Cytotoxicity in mock-infected cells of the antirhinoviral assay (XTT). Format: cell-based. The essentials: (§3)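 H1-HeLa cells infected with HRV (HRV-14 at m.o.i. 0.13) or mock-infected, incubated with compound for two days; protection read by XTT/PMS formazan at 450/650 nm. EC50 is the concentration restoring formazan to 50% of mock-infected controls. CC50 is from mock-infected cells, and TI = CC50/EC50.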

Assay in data set [7]: as above
Format: cell-based. As to conditions: human, H1-HeLa cells, table line HRV-14. Summed up: as §3

In data set [8] the test system is MRC-5 cells. Briefly: Cytotoxicity in uninfected cells of the anti-echoviral/anti-enteroviral assay (XTT). The class given is cell-based. The settings on record: table line ENT-70. The protocol:
as §1

Assay in data set [9]: as above
Format: cell-based. The settings on record: human, MRC-5 cells, table line ECHO-11. The protocol:
as §1

For data set [10], the system named is HRV-14. Nature of the data set: Antirhinoviral H1-HeLa cell culture assay (XTT cell protection). Format: cell-based, human rhinovirus. The settings on record: Rhinovirus B, HRV14, H1-HeLa, HRV-14, H1-HeLa cells. Summed up:
as §3

Data set [11] relates to HRV-1A. The data set is described as above. Format: cell-based, human rhinovirus. As to conditions: Rhinovirus A, HRV1A, H1-HeLa cells.
For data set [12], the target named is T1, rhinovirus 3C protease, serotype 14 (Human rhinovirus 14, UniProt P03303).
T1 construct: Recombinant rhinovirus 3C proteases; made in house
T1 sequence (P03303 1538-1719): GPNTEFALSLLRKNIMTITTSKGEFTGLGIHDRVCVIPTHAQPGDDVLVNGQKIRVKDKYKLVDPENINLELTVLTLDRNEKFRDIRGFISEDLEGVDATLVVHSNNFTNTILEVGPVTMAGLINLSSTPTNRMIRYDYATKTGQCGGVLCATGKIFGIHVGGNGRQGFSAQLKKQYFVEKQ
Briefly: Inhibition of rhinovirus 3C protease (FRET assay, enzyme start). The settings on record: HRV-14 3C protease, progress curves, read-out: Kobs/I. Format: biochemical. Summed up:
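Recombinant serotype 14 3C protease (50-100 nM) with ~1 μM DABCYL-GRAVFQGPVG-EDANS FRET substrate in 50 mM tris pH 7.6, 1 mM EDTA, 2% DMSO. Reactions started by enzyme addition; kobs/[I] taken from fluorescence-increase progress curves.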

pEC50: −log10 of the molar value.

As to `CCOC(=O)/C=C/[C@H](C[C@@H]1CCNC1=O)NC(=O)[C@H](Cc1ccccc1)NC(=O)c1ccc(-c2cccc3ccccc23)[nH]1` [Compound 25, 4S-{2S-[(5-Naphthalen-1-yl-1H-pyrrole-2-carbonyl)-amino]-3-phenyl-propionylamino}-5-(2-oxo-pyrrolidin-3S-yl)-pent-2-enoic acid ethyl ester], the pEC50 is 8.52 in [1]; 6.83 in [3]; 6.70 in [4]; 7.36 in data set [5]; 7.47 in [10]; 7.05 in [11]. The CC50 at 2 days in data set [2] and in data set [7] was > 10000 nM in each case. Besides, the CC50 in data set [6] (table line HRV-1A), in [6] (table line HRV-10) and in data set [8] was > 10000 nM throughout. For the same compound, the CC50 at 4 days in data set [9] is > 10000 nM. In data set [12], the kinact/KI worked out at 690000 M⁻¹ s⁻¹.

As usually defined, the pEC50 is the EC50 on a negative log10 scale, so that one unit is a factor of ten. Low values mean a high EC50, high ones a low EC50. What is called CC50 is the concentration at which the toxic effect on the cells reaches its halfway point. Read a high CC50 as lower toxicity to the cells.
